Reference: publication PMC6222829, “Synthesis, Molecular Docking and Anticancer Activity of Diflunisal Derivatives as Cyclooxygenase Enzyme Inhibitors” (Molecules : A Journal of Synthetic Chemistry and Natural …, 2018)
Like-named read-outs stand apart in the source and are kept apart here.

What was measured:
HCT116 cell line [1] = tested on: HCT116 cell line; set-up: method as in PMID 20658169, PMID 26580554; details: literature value ref 42,43; cited from earlier work
PC-3 cell line [2] = tested on: PC-3 cell line; set-up: method as in PMID 20658169, PMID 26580554; details: literature value ref 42,43; cited from earlier work
T47D cell line [3] = tested on: T47D cell line; set-up: method as in PMID 20658169, PMID 26580554; details: literature value ref 42,43; cited from earlier work
PC-3 cell line [4] = test: MTS cytotoxicity assay, PC-3; assay type: cell-based, human; set-up: key to IC50 PC-3: PCV: Promoting cell viability; NSC: No significant change; details: MTS assay, 72 h incubation; for IC50: Homo sapiens, PC-3
Description: (§1) In this project, the colorectal cancer cell line HCT116 (ATCC® CCL-247™), […] prostate cancer cell line PC-3 (ATCC® CRL-1435™), breast cancer cell lines T47D (ATCC® HTB-133™), MCF7 (ATCC® HTB-22™) and finally, epithelial embryonic kidney cell line HEK293 (ATCC® CRL-1573™) were used. All media were completed with %10 fetal bovine serum (FBS) and %1 penicillin streptomycin amphotericin (PSA). All cells were cultured periodically at 37 °C, 5% (v/v) CO2 and 95% (v/v) air in T-75 flasks. Different media were used for the different cell lines based on ATCC standards: MCF7 and HEK293 cell lines were cultured in DMEM High Mmedium (ATCC, 30-2003); T47D and PC-3 cell lines were cultured in RPM 1640 medium (ATCC, 30-2001); HCT116 cell line was cultured in DMEM F12 medium (ATCC, 30-2006). RPM 1640 medium was further completed with 0.2 unit/mL bovine insulin for the T47D cell line. Cells were passaged when they reached %80 confluency in order to support proliferation.
(§2) The effects of the synthesized compounds on the cell viability were tested. Stock solutions for each compound were prepared by measuring 20 mg of each compound and dissolving it in 1 mL DMSO to a final concentration of […], followed by filtration through a 0.2-μm filter (Sartorius AG, Gottingen, Germany). Then stock solutions were diluted as 1/10, 1/100 and 1/1000 in the designated media and applied on the cell lines. In order to determine the effect of DMSO itself, the same dilutions were performed by using DMSO, only and applied on the cell lines. Cell densities used for each cell line in 96 well plate were as follows: for PC-3, HCT116 and HEK293 cell lines 5000 cells/well; for T47D cell lines 20,000 cells/well. Cell viability was measured by the MTS cytotoxicity assay (CellTiter96 AqueousOne Solution; Promega, Southampton, UK) according to the manufacturer’s instructions. 3-(4,5-Dimethylthiazol-2-yl)-5-(3-carboxymethoxyphenyl)-2-(4-sulfo-phenyl)-2H-tetrazolium (MTS) is a yellow tetrazolium salt which is catabolized to formazan by dehydrogenase enzyme in the mitochondria of the living cells. Formazan is a purple compound and the detection in this assay is based on the measurement of formazan compounds by an ELISA plate reader. After incubating the cells for 72 h, 10 µL MTS reagent and 100 µL designated medium was given to the cells followed by 2 h of incubation at 37 °C. Thereafter, the absorbance at 490 nm was measured by an ELISA plate reader. (BioTek Instruments, Inc., Winooski, VT, USA). The activity doses of the compounds were determined according to 50% cell death rate when compared to DMSO, only after 72 h of incubation. […] IC50 values are calculated by the GraphPad prism software.

HEK293 cell line [5] = test: MTS cytotoxicity assay, HEK293; assay type: cell-based, human; details: normal cell line; for IC50: Homo sapiens, HEK293, MTS assay, 72 h incubation
Description: as §1, §2

T47D cell line [6] = test: MTS cytotoxicity assay, T47D; assay type: cell-based, human; set-up: key to IC50 T47D: PCV: Promoting cell viability; NSC: No significant change; details: for IC50: Homo sapiens, T47D
Description: as §1, §2

MCF7 cell line = test: MTS cytotoxicity assay, MCF7; assay type: cell-based; details: Homo sapiens, 72 h incubation
Description: as §1, §2

HCT116 cell line [7] = test: Annexin V/PI apoptosis assay, HCT116; assay type: cell-based, human; details: FITC-Annexin V/PI flow cytometry
Description: (§3) Evaluation of the effect of the synthesized compounds on apoptosis was determined by the FITCH-AnnexinV/PI protocol. Damaged cell membrane of necrotic cell enables propidium iodide (PI) to bind DNA and induces a red fluorescence, although it is excluded by non-damaged cells, select live and apoptotic cells. FITCH-Annexin V has the ability to bind to phosphatidylserine which is a specific marker of apoptosis. […] The lower left panel of the quadrant of the cytograms indicates live cells due to exclusion of PI and non-bound Annexin V.
(§4) The upper left panel of the cytogram represents necrotic cells which are positive for PI. Each cytogram of each cell was analyzed and a histogram graph was drawn for further visual information.
(§5) Determination of IC50 values was followed by the investigation of effect of the synthesized compounds on apoptosis. Cells were seeded into six well plates at densities of 15,000 cells/well (PC-3, HCT116 and HEK293 cell lines) and 60,000 cells/well (T47D cell lines). After the treatment cells were harvested and washed with ice cold PBS. 1 × Annexin-binding buffer was prepared while the cells were being washed. […] The incubation step was followed by adding 2 µL of the 100 µg/mL PI working solution to the proper groups then the fluorescence was observed by flow cytometry.

T47D cell line [8] = test: Annexin V/PI apoptosis assay, T47D; assay type: cell-based, human; details: FITC-Annexin V/PI flow cytometry
Description: as §3, §4, §5

HCT116 cell line [9] = test: MTS cytotoxicity assay, HCT116; assay type: cell-based, human; details: for IC50: Homo sapiens, HCT-116, MTS assay, 72 h incubation
Description: as §1, §2

HEK293 cell line [10] = test: Annexin V/PI apoptosis assay, HEK293; assay type: cell-based; details: FITC-Annexin V/PI flow cytometry
Description: as §3, §4
Determination of IC50 values was followed by the investigation of effect of the synthesized compounds on apoptosis. Cells were seeded into six well plates at densities of 15,000 cells/well (PC-3, HCT116 and HEK293 cell lines) and 60,000 cells/well (T47D cell lines). After the treatment cells were harvested and washed with ice cold PBS. 1 × Annexin-binding buffer was prepared while the cells were being washed. Working solution of PI (100 µg/mL) was prepared as well by diluting 5 µL of the 1 mg/mL PI stock solution in 45 µL 1 × Annexin-binding buffer. After the precipitation of the cells, they were resuspended in 500 µL 1 × Annexin-binding buffer. Resuspended cells were separated into four groups (Annexin V, PI, Annexin V + PI and NC) each containing 100 µL of suspension. Five µL of the Annexin V conjugate was added to the proper groups. Samples were incubated for 15 min at room temperature. The incubation step was followed by adding 2 µL of the 100 µg/mL PI working solution to the proper groups then the fluorescence was observed by flow cytometry.

Row | SMILES | IC50 (HEK293 cell line [5]) [µM] | IC50 (PC-3 cell line [4]) [µM] | IC50 (MCF7 cell line) [µM] | IC50 (T47D cell line [6]; MTS assay, 72 h incubation) [µM] | further results
1 | N.N.[Cl][Pt][Cl] [Cisplatin] | – | – | – | – | IC50 (HCT116 cell line [1]): 1.25 µM; IC50 (PC-3 cell line [2]): 39.9 µM; IC50 (T47D cell line [3]): 0.836 µM
2 | O=C(NNC(=S)Nc1cccc(F)c1)c1cc(-c2ccc(F)cc2F)ccc1O [Compound 4] | 617 | – | – | – | IC50 PC-3 (PC-3 cell line [4]): PCV; IC50 T47D (T47D cell line [6]; MTS assay, 72 h incubation): PCV
3 | CCCn1c(-c2cc(-c3ccc(F)cc3F)ccc2O)n[nH]c1=S [Compound 11, 5-(2′,4′-Difluoro-4-hydroxybiphenyl-3-yl)-4-propyl-2,4-dihydro-3H-1,2,4-triazole-3-thione] | 11.5 ± 0.2 | 174 ± 6.3 | 22.2 ± 2.3 | 10.1 ± 1.57 | –
4 | Oc1ccc(-c2ccc(F)cc2F)cc1-c1n[nH]c(=S)n1-c1cccc(Cl)c1 [Compound 13, 4-(3-Chlorophenyl)-5-(2′,4′-difluoro-4-hydroxybiphenyl-3-yl)-2,4-dihydro-3H-1,2,4-triazole-3-thione] | 8.7 ± 1.79 | 34.1 ± 3.7 | 12.9 ± 2.1 | 5.55 ± 2.7 | –
5 | COc1ccccc1-n1c(-c2cc(-c3ccc(F)cc3F)ccc2O)n[nH]c1=S [Compound 16, 5-(2′,4′-Difluoro-4-hydroxybiphenyl-3-yl)-4-(2-methoxyphenyl)-2,4-dihydro-3H-1,2,4-triazole-3-thione] | 53 ± 2.39 | 169 ± 3.9 | – | 27.3 ± 2.28 | apoptosis / necrosis, HCT116 (HCT116 cell line [7]): extensive apoptotic effect; apoptosis / necrosis, T47D (T47D cell line [8]): resulted in necrosis; cytotoxic effect on HEK293 (in words) (HEK293 cell line [5]): did not show cytotoxic effects; anticancer activity against HCT-116 (in words) (HCT116 cell line [9]): displayed activity; IC50 (HCT116 cell line [9]): 6.2 ± 3.1 µM; anticancer activity against T47D (in words) (T47D cell line [6]): demonstrated anticancer activity; apoptosis / necrosis, HEK293 (HEK293 cell line [10]): did not result in apoptosis
6 | O=C(NNC(=S)Nc1ccc(Br)cc1)c1cc(-c2ccc(F)cc2F)ccc1O [Compound 7, N-(4-Bromophenyl)-2-[(2′,4′-difluoro-4-hydroxybiphenyl-3-yl)carbonyl]hydrazine carbothioamide] | 3.17 ± 1.06 | 11.7 ± 4.2 | – | 16.7 ± 2.8 | –
7 | COc1ccccc1NC(=S)NNC(=O)c1cc(-c2ccc(F)cc2F)ccc1O [Compound 9, 2-[(2′,4′-Difluoro-4-hydroxybiphenyl-3-yl)carbonyl]-N-(2-methoxyphenyl)hydrazine carbothioamide] | 3.02 ± 1.9 | 1.57 ± 1.4 | 3.92 ± 0.27 | 3.86 ± 0.7 | IC50 (HCT116 cell line [9]): 1.83 ± 0.92 µM
